Results from US8119400B2, “Methods of inhibiting smooth muscle cell migration and proliferation” (Beth Isreal Deaconess Medical Center, Inc., priority 2005, dated 2012).
“Also recorded” adds a separate entry of the source. No end group written: not given here. *: point of attachment. Myristoyl = CCCCCCCCCCCCCC(=O)*; {P} = phosphate

Legend:
[1] = test system: VSMCs in human saphenous vein; experiment: Proliferation after ex vivo siRNA transfection of whole vein; type: cell-based; conditions: 100 nM, three days after transfection, vs control siRNA
MARCKS mRNA [2] = experiment: MARCKS mRNA knockdown after lipofection, HVSMCs (qRT-PCR); type: cell-based, human; conditions: 100 nM, 24 hours after lipofection
Procedure: (§1) MARCKS knockdown was achieved by lipofection of HVSMCs and HECs with MARCKS siRNA. Lipofection was performed using the DharmAFECT1 transfection reagent (Dharmacon) for 24 hours in serum- and antibiotic-free media as per manufacturer's protocol.
(§2) Evaluation of target gene mRNA knockdown after siRNA delivery was analyzed using a Stratagene MX3000P real time PCR (qRT-PCR) machine (Stratagene, La Jolla, Calif.). Total RNA was extracted from plate wells using RNeasy spin columns (Qiagen, Valencia, Calif.) and cDNA was prepared from […] using the iScript cDNA synthesis kit (Bio-Rad, Hercules, Calif.) prior to thermal cycling. For quantitative analysis, target gene levels were normalized to 18s or B2M levels as previously described (Bustin, S A et al. (2004) J. Mol. Endocrinol. 29(1):23-39), and target and housekeeper gene amplification reactions were performed in triplicate for each cDNA sample using 1 μl cDNA per reaction. […]
(§3) Thermal cycling was performed under the following conditions: Stage 1: 10 minutes at 95° C.; Stage 2 (40 cycles): 30 seconds at 95° C., 1 minute at 60° C., 30 seconds at 72° C. The Comparative Quantification software tool was used to compare normalized gene levels from cells transfected with targeting siRNA vs. non-targeting control siRNA (calibrators). […]

MARCKS mRNA [3] = experiment: MARCKS mRNA knockdown after lipofection, HECs (qRT-PCR); type: cell-based, human; conditions: 5 nM, 24 hours after lipofection
Procedure: as §1, §2, §3

MARCKS protein [4] = experiment: MARCKS protein Western blot, HVSMCs; type: cell-based, human; conditions: 100 nM, 3 days after lipofection
Procedure: as §1
(§4) Cell extracts were recovered from 6-well plates after siRNA lipofection and analyzed by sodium dodecyl sulfate-polyacrylamide gel electrophoresis (SDS-PAGE) and Western blotting with the use of standard techniques. Antibodies used for protein detection were: mouse monoclonal anti-GAPDH (1:10,000 dilution, Ambion), goat polyclonal anti-MARCKS (N-19) IgG (1:100 dilution, Santa Cruz Biotechnology, Santa Cruz, Calif.), mouse monoclonal anti-p27^kip-1 (1:250 dilution, Pharmingen, San Diego, Calif.) and mouse anti-β-tubulin IgM (clone 5H1) (1:250 dilution, Pharmingen, San Diego, Calif.). Secondary antibodies used were peroxidase-conjugated goat anti-mouse IgG (H+L) (1:1,000-1:5,000 dilution, Chemicon International, Temecula, Calif.) and peroxidase-conjugated rabbit anti-goat IgG (H+L) (1:500 dilution, Bio-Rad). Densitometry was performed using Adobe Photoshop 6.0 or NIH Image J 1.34.

MARCKS protein [5] = experiment: MARCKS protein Western blot, HECs; type: cell-based, human; conditions: 25 nM, 3 days after lipofection
Procedure: as §1, §4

HVSMCs [6] = experiment: Fluoroblok migration assay, HVSMCs; type: cell-based, human; conditions: 100 nM, 3 days after lipofection, 30% FBS
Procedure: The migratory and proliferative abilities of HVSMCs and HECs were assessed after MARCKS knockdown using migration and proliferation assays. Phenotypic analysis of HVSMC migration was performed using the Fluoroblok migration assay (BD Biosciences, San Jose, Calif.) to measure the ability of calcein-AM fluorescently-labeled cells to migrate through a PET membrane with […] towards a chemotactant stimulus of 30% FBS. Briefly, VSMCs were incubated in 10 μM calcein-AM (Invitrogen) for 1 hour, trypsinized, and resuspended in serum-free VSMC media. In this assay, the upper chamber of the Transwell insert is separated from the lower chamber by a fluorescently opaque polyethyleneterephthalate (PET) membrane with 8 μm pores at the base of the insert. Approximately 50,000 VSMCs were loaded in each of the upper wells. The lower wells contained media supplemented with serum-free VSMC media, VSMC media with 30% FBS, or EC-conditioned media to stimulate cell migration. At time 0, the upper chambers were read at an excitation of 485 nm and an emission of 535 nm on a Biotek Fluorometer FLX800 (BioTek Instruments) and returned to the incubator. After 24 hours, the lower chambers were read with the same settings. The proportion of cells migrated were calculated by dividing the fluorescent intensity after 24 hours by the intensity read at time 0. […]

HECs [7] = experiment: Fluoroblok migration assay, HECs; type: cell-based, human
HVSMCs [8] = experiment: alamarBlue proliferation assay, HVSMCs; type: cell-based, human
Procedure: Phenotypic analysis of vascular cell proliferation was performed using the alamarBlue assay (Trek Diagnostics, Cleveland, Ohio), as previously described (Voytik-Harbin, SL et al. (1998) In Vitro Cell Dev. Biol. Anim. 34(3):239-246), to quantitate total cellular metabolic activity in the wells of tissue culture plates. Briefly, HVSMCs were plated on 24-well plates at a density of 10,000 cells per well and grown for 24 hours in normal cell media. Afterwards, a Day 0 measurement of fluorescent intensity after 4 hour incubation with the alamarBlue reagent was obtained prior to siRNA lipofection. 24 hour siRNA lipofection in serum-free media served as the starvation period to synchronize cells in the cell cycle, followed by the application of media with 30% FBS to stimulate proliferation. AlamarBlue assays were performed every two days, followed by the reapplication of fresh media with 30% FBS. For analysis, the fluorescence intensity of each well was determined using an LS-5B Luminescence Spectrometer (PerkinElmer) at excitation and emission wavelengths of 509 and 590 nm, respectively, and was divided by the value obtained at Day 0 to generate a measure of relative proliferation.

HECs [9] = experiment: alamarBlue proliferation assay, HECs; type: cell-based, human; conditions: 25 nM
p27^kip1 [10] = experiment: p27kip1 Western blot after MARCKS knockdown, HVSMCs; type: cell-based, human; conditions: 25 nM, 24 hours post-induction with 30% FBS, GAPDH corrected densitometry
Procedure: (§5) To investigate the differential effects of MARCKS knockdown on the proliferation of vascular cells, Western blots were performed to assess p27^kip1 expression after the induction of proliferation in HVSMCs and HECs. To assess p27^kip1 expression in the setting of MARCKS knockdown, HVSMC and HECs were transfected with 25 nM Control (C) or MARCKS (M) siRNA followed by 48 hour starvation in media with 0.1% FBS to synchronize cells in the Go phase of the cell cycle. Proliferation was then induced by the addition of media with 30% FBS and cells were lysed 24 hours post-induction for protein harvest and Western blot analysis.
as §4, with “Secondary antibodies used were peroxidase-conjugated goat anti-mouse IgG (H+L) (1:1,000-1:5,000 dilution, Chemicon International, Temecula, Calif.) and peroxidase-conjugated rabbit anti-goat IgG (H+L) (1:500 dilution, Bio-Rad). Densitometry was performed using Adobe Photoshop 6.0 or NIH Image J 1.34.” left out

p27^kip1 [11] = experiment: p27kip1 Western blot after MARCKS knockdown, HECs; type: cell-based, human; conditions: 25 nM, 24 hours post-induction with 30% FBS, GAPDH corrected densitometry
Procedure: as §5
as §4, with “Secondary antibodies used were peroxidase-conjugated goat anti-mouse IgG (H+L) (1:1,000-1:5,000 dilution, Chemicon International, Temecula, Calif.) and peroxidase-conjugated rabbit anti-goat IgG (H+L) (1:500 dilution, Bio-Rad). Densitometry was performed using Adobe Photoshop 6.0 or NIH Image J 1.34.” left out

MARCKS mRNA [12] = experiment: Rapid siRNA transfection, MARCKS mRNA knockdown, HVSMCs; type: cell-based, human; conditions: 10 minutes, 2000 cells per well
Procedure: (§6) To more rigorously study the effects of pressure on gene silencing in vascular cells and develop an in vitro model for rapid siRNA transfection, a chamber that could hold standard tissue culture plates and be pressurized with wall air was fabricated. HVSMCs and HECs were seeded in 96-well plates at a density of 6,000 cells/cm^2 and were treated with Control or MARCKS siRNA suspended in normal saline solution, without the addition of a transfection reagent, at concentrations from 1-25 μM in either water, lactate ringers solution (Baxter, Deerfield, Ill.), normal saline (Baxter), cell media, or Plasmalyte A (Baxter) supplemented with 12 mg/ml papaverine hydrochloride and 4 units/ml heparin sodium (LoGerfo, FW et al. (1984) Arch. Surg. 119(10):1212-1214). First, siRNA solutions were applied to one plate of each cell type and rapid siRNA transfection was performed by placing cells in the specially-designed pressure chamber for 10 minutes while raising the ambient pressure by 0-1 ATM using wall air. Cells were then removed from the chamber and the siRNA solution was promptly aspirated and replaced with fresh media prior to returning the plates to the incubator. Parallel plates were subjected the same siRNA treatment and placed in the chamber for 10 minutes without pressurization.
(§7) Evaluation of target gene mRNA knockdown was performed as described in Example 8 above.

MARCKS mRNA [13] = experiment: Rapid siRNA transfection, MARCKS mRNA knockdown, HECs; type: cell-based, human; conditions: 10 minutes, 2000 cells per well
Procedure: as §6, §7

VSMCs [14] = conditions: 100 μM, 24 hours, FBS and TNF-α stimulus
Procedure: To assess cellular migration, a fluorescent migration assay (BD Biosciences, San Jose, Calif.) was utilized. In this assay, VSMC's grown in culture were labeled with 1 μM calcein. Approximately 50,000 cells, suspended in serum free media, were loaded onto a 0.3 cm^2 insert. The surface of the insert is a fluorescently-opaque polyethylene terephthalate (PET) membrane with 8 μm pores that are sufficiently large to permit cells to migrate across its surface. The insert was placed in a tissue culture plate with a chemotactic stimulus, TNF-α, in the lower well, which contained media with 30% FBS and TNF-A at a concentration of 200 Units/ml. Immediately after the inserts were placed into the respective wells, the wells were excited at a wavelength of 485 nm and the fluorescence emission was read at 535 nm. At the order of magnitude of cells that were used, the fluorescence is proportional to cell number in a linear relationship. After 24 hours, the plate was excited a second time and emission at 535 nm was read. Fluorescence was read only from the bottom well, such that only cells that have migrated contribute to the measured fluorescence. The proportion of cells that migrated was determined by dividing the fluorescence of the bottom of the wells at 24 hours by the initial fluorescence from the top of the wells at the time of plating. […]

VSMCs [15] = conditions: 100 μM, after 5 days of serum stimulation
Procedure: When it is reduced, it emits fluorescence at 590 nm. Therefore, emission at 590 nm was used as a marker for relative cellular proliferation. Cells were incubated in the dark in media containing 10% alamarBlue (BioSource International, Carmilla, Calif.) and 10% FBS for four hours. After incubation, 1 ml of media from the incubated cells was mixed with 1 ml of media containing 10% FBS and the emission at 590 nm was recorded.
A time-zero alamarBlue Assay was performed after a 12-hour period of starvation to assure equal cell loading and synchronization in the cell cycle. The cells were incubated with predetermined concentrations of the PKC inhibitor, 20-28. Cells were incubated in media with 30% FBS for a total of 24 hours. At that point, alamarBlue assays were performed at predetermined intervals. After each assay was completed, the media was replenished with media containing 30% FBS. As in the migration assay, an unstimulated, negative control with standard media was assayed.
To inhibit the effects of MARCKS activity, cells in culture were treated with the protein kinase C inhibitor 20-28 (Calbiochem, La Jolla, Calif.). […] Eichholtz, T. et al. (1993) J. Biol. Chem. 268:1982-1986.

Substance	effect on proliferation in transfected vein [1]	MARCKS mRNA knockdown (MARCKS mRNA [2])	MARCKS mRNA knockdown (MARCKS mRNA [3])	MARCKS protein knockdown (Western blot) (MARCKS protein [4])	MARCKS protein knockdown (Western blot) (MARCKS protein [5])	cellular migration, % of controls (HVSMCs [6])	effect on cellular migration (HECs [7]; 25 nM (FIG. 14B also 10 nM), vs control siRNA)	relative cellular migration (HECs [7]; 25 nM, 5% FBS with 200 ng/ml VEGF)	effect on HVSMC proliferation (HVSMCs [8]; 25 nM (FIG. 15A: 25, 50 and 100 nM), vs control scrambled siRNA)	proliferation, fold increase at day 6 (HVSMCs [8]; HVSMCs, 25 nM, 30% FBS, relative to Day 0)	effect on HEC proliferation (HECs [9]; full MARCKS knockdown)	proliferation, fold increase at day 6 (HECs [9]; HECs, relative to Day 0)	increase in p27^kip1 protein expression relative to controls (p27^kip1 [10])	increase in p27^kip1 protein expression relative to controls (p27^kip1 [11])	MARCKS knockdown (MARCKS mRNA [12]; 0 ATM)	MARCKS knockdown (MARCKS mRNA [12]; 0.4 ATM)	MARCKS knockdown (MARCKS mRNA [13]; 0 ATM)	MARCKS knockdown (MARCKS mRNA [13]; 0.4 ATM)	proportion of cells migrated across the membrane (VSMCs [14])	emission at 590 nm (alamarBlue) (VSMCs [15])
MARCKS siRNA: siRNA, sense 5′-GGU-GCC-CAG-UUC-UCC-AAG-AUU-3′ (SEQ ID NO. 18), anti-sense SEQ ID NO. 19 with 5′ phosphate (sense GGUGCCCAGUUCUCCAAGAUU; antisense UCUUGGAGAACUGGGCACCUU; sense: chemistry not given here; antisense: 5' {P}, sugars by position and backbone not given here)	reduced proliferation	54±2%	89±1%	complete knockdown	complete knockdown	68±7%	no significant effect; also recorded: no significant difference	1.0±0.7	near complete arrest	1.41±0.36 fold	only a minimal effect	1.90±0.06 fold	3.2 fold	1.8 fold	0±12%	41±12%	22±17%	53±10%		
Myristoyl-FARKGALRQ [20-28]																			6.9%±1.5%	58.0±12.1
